Source: patent US20030118983A1, “Rapid screening procedure for inflammation mediators” (priority 2000, published 2003)

Columns and labels:
Assay type in all cases: cell-based, human
[1] = test system: PMNs; experiment: OxyHb-FLEX bound to and internalized into PMNs (flow cytometry); conditions: concentrations ≧30 μg/mL
Method: OxyHb bound to and internalized into PMNs was determined using fluorescein-conjugated oxyHb (Molecular Probes, Eugene, Oreg.). […] Flow cytometric measurements were performed as described above. To visualize intracellular levels of oxyHb-FLEX, whole cell and Z-plane images of PMNs were collected using an Axiovert 135 inverted confocal microscope (Zeiss, Thornwood, N.Y., and Atto Instruments, Rockville, Md.).

[2] = test system: PMNs; experiment: Propidium iodide determination of PMN viability (membrane integrity); conditions: oxyMb 30 μg/mL, PMA 2 h
Method: (§1) PMNs were incubated with and without L-NMMA (5 mM) and oxyMb (1-1000 μg/mL) for 10 min at 37° C. followed by PMA (200 nM) for 2 h at 37° C. Membrane integrity was determined flow cytometry analyses after a 2-3 min treatment with PI (0.75 mM).

[3] = test system: lymphocytes; experiment: Plasma membrane integrity of lymphocytes co-incubated with PMA-activated, oxyMb-treated PMNs; conditions: oxyMb 30 μg/mL
Method: as §1
A mixed PMN/lymphocyte preparation was used to determine if the NO. produced by PMNs could affect the plasma membrane integrity of neighboring lymphocytes. PMA-activated and oxyMb (30 μg/mL)-treated PMNs decreased lymphocyte plasma membrane integrity as the ratio of PMNs/lymphocyte increased from 0:1 (76%) to 4:1 (68%) to 10:1 (61%).

[4] = test system: PMNs; experiment: Heme protein effect on DCFH oxidation in unstimulated, LPS and TNFα-, and PMA-stimulated PMNs, with or without NOS inhibitors, SOD or antioxidants; conditions: for increase in DCFH oxidation compared with 0 and 1000 μg/mL oxyMb: 30 μg/mL oxyMb
Method: DCFH-loaded PMNs were incubated with and without N-methyl-L-arginine (L-NMMA; 5 mM; Calbiochem, San Diego, Calif.) and heme proteins (0.3-1000 μg/mL) at 37 ° C. for 10 minutes. […] In unstimulated and LPS and TNFα -stimulated PMNs, the treatments were oxyMb, or oxyMb+L-NMMA (5 mM). […] RBC cell membranes were ruptured using a micro-ultrasonic cell disrupter, Kontes, Janke and Kukel Gmbh and CO. (Stauten, Germany). […] OxyMb was prepared by mixing excess sodium dithionite with Mb for 1 h and inorganic sulfur compounds were removed by dialyzing in HBSS buffer for 3 h. Percent iron in the ferric state in non-dithionite treated oxyMb or oxyHb was not assessed. […] […] cross-linked Hb was a gift from Walter Reed Army Institute of Research. […] Also, various concentrations of bovine liver Cu, Zn SOD (30-10,000 U/mL; 8-2640 μg/mL) and 30 μg/mL oxyMb were incubated with PMA-stimulated PMNs pretreated with and without L-NMMA. Flow cytometric measurements of oxidant-induced DCF fluorescence were performed as described above.

[5] = test system: PMNs; experiment: ATP levels in PMA-activated PMNs (bioluminescent somatic cell assay); conditions: oxyMb 30 μg/mL, PMA 2 h
Method: OxyMb effect on ATP levels in PMA-activated PMNs was measured using the Bioluminescent Somatic Cell Assay Kit according to the manufacturer's instructions. PMNs were incubated with and without L-NIO (5 mM) and oxyMb (1-1000 μg/mL) for 10 min at 37° C. PMNs were subsequently treated with PMA (200 nM) for 2 h at 37° C. PMNs were lysed, frozen at −20° C. and analyzed within 24 h. Emitted light was determined in a camera luminometer, Tropix (Redford, Mass.) using Panchromatic black and white, ISO 20,000, type 612 film, Polaroid (Cambridge, Mass.) with an exposure time of 2.5 min. Level of exposure was measured and digitized with a solid state camera, COHU (San Diego, Calif.) and analyzed using the public domain NIH Image 1.55 program. Statistical analysis. All values are presented as mean±SEM. The Kolmogorov-Smirnov test was used to verify the normal distribution of the data. Groups were compared by using analysis of variance with the Fisher least significant difference (LSD) post hoc procedure. Statistical significance was accepted at P values<0.05.

[6] = test system: PMNs; experiment: DNA strand breaks in PMA-activated PMNs (tdt-mediated dUTP nick end labeling); conditions: oxyMb 30 μg/mL, PMA 2 h
Method: OxyMb effect on DNA strand breaks in PMA-activated PMNs was measured by flow cytometry using the tdt-mediated dUTP nick end labeling assay (In Situ Cell Death Detection Kit, Fluorescein, Boehringer Mannheim, Indianapolis, Ind.) according to manufacturer's instructions. PMNs were incubated with and without NMMA (5 mM) and oxyMb (1-1000 μg/mL) for 10 min at 37° C. PMNs were subsequently treated with PMA (200 nM) for 2 h at 37° C. Label solutions without terminal transferase or with DNase I (10 U) served as negative and positive controls, respectively.

[7] = test system: PMNs; experiment: Phosphatidylserine externalization on PMN plasma membrane (annexin V); conditions: oxyMb 30 μg/mL, PMA 1 h
Method: Levels of phosphatidylserine on the outer surface of plasma membrane were determined by FITC-labeled annexin V (8 μg per 300,000 PMNs/100 μL) according to manufacturer's instructions (Caltag Laboratories, Burlingame, Calif.). PMNs were incubated with and without L-NMMA (5 mM) and oxyMb (1-1000 μg/mL) for 10 min at 37° C. followed by PMA (200 nM) for 1 h at 37° C. PMNs were then incubated with annexin V for 30 min and propidium iodide (0.75 mM) for 2-3 min at 4° C. prior to flow cytometric analyses.

[8] = test system: PMNs; experiment: Total nitrite/nitrate levels in filtrates of PMA-stimulated PMNs; conditions: oxyMb 30 μg/mL
Method: Total nitrate and nitrite levels in filtrates of PMNs were determined by reducing the nitrate to nitrite by nitrate reductase and reacting the resulting nitrite with 2,3-diaminonaphthalene to form a fluorescent product. PMNs (500,000/300 ul HBSS) were treated with oxyMb (1-1000 µg/mL) and SOD (30 U) for 10 min followed by PMA (200 nM) for 1 h at 30° C. Filtrates were collected by centrifugation at 16,000 g for 15 min through Ultrafree-MC 10,000 NMWL filters (Millipore, Bedford, Mass.). Total nitrite levels were determined with a 96-well fluorescence analyzer (IDEXX, Westbrook, Me.). PMNs exposed to the same treatment were analyzed by flow cytometry for DCFH oxidation.

[9] = test system: PMNs; experiment: Extracellular O2.− produced by PMA-stimulated PMNs (cytochrome c reduction)
Method: PMNs (200,000/200 μl HBSS) were treated with various concentrations of oxyMb or bovine liver Cu, Zn SOD (0.05-1000 μg/mL) in a 340 ATTC 96-well reader (SLT-Labinstruments, Salzburg, Austria) and activated with PMA. O2.^− production was determined by measuring reduction of cytochrome c, at 550 nm.

[10] = test system: PMNs; experiment: Heme protein effect on DCFH oxidation in unstimulated, LPS and TNFα-, and PMA-stimulated PMNs, with or without NOS inhibitors, SOD or antioxidants; conditions: 10,000 U/mL; 26,300 μg/mL, 30 μg/mL oxyMb
[11] = LPS and TNFα-stimulated PMNs, 30 ug/mL oxyMb

## fluorescein-5-EX succinimidyl ester conjugated to oxyhemoglobin [OxyHb-FLEX]
[1]
  OxyHb-FLEX bound to and internalized into PMA-stimulated PMNs relative to unstimulated PMNs: 2-6 fold

## oxymyoglobin [oxyMb]
[2]
  PMN plasma membrane damage (reduced viability): 87%
  PMN plasma membrane damage, higher than PMNs without oxyMb: 3 fold
[3]; PMNs/lymphocyte ratio 0:1, PMA
  lymphocyte plasma membrane integrity: 76%
[3]; PMNs/lymphocyte ratio 4:1, PMA
  lymphocyte plasma membrane integrity: 68%
[3]; PMNs/lymphocyte ratio 10:1, PMA
  lymphocyte plasma membrane integrity: 61%
[4]; LPS and TNFα-stimulated PMNs
  oxyMb concentration at which DCFH oxidation peaked: 30 µg/mL
[4]; [11]
  increase in DCFH oxidation compared with 0 μg/mL oxyMb: approximately 6 fold
  increase in DCFH oxidation compared with 1000 μg/mL oxyMb: ~3 fold
[4]; PMA-stimulated PMNs
  oxyMb concentration of peak response in DCFH oxidation: 30 µg/mL
  increase in DCFH oxidation compared with 0 and 1000 μg/mL oxyMb: approximately 3 fold
[4]; oxyMb 100 μg/mL in the presence of albumin, data not shown
  DCFH fluorescence relative to control levels: 5 times
[4]; unstimulated PMNs
  increase in DCFH oxidation compared with 0 and 1000 μg/mL oxyMb: approximately 4 fold
[5]
  intracellular ATP levels: 6 ng/300,000 PMNs
  intracellular ATP levels, lower than PMNs without oxyMb: 9 fold
[6]
  PMNs containing DNA strand breaks: 50%
  PMNs containing DNA strand breaks, greater than PMNs without oxyMb: 4 fold
[7]
  phosphatidylserine positive PMNs: 20%
  phosphatidylserine positive PMNs, greater than PMNs without oxyMb: 5 fold
[8]
  nitrite levels compared with untreated PMNs: doubling

## Bovine liver SOD: bovine liver Cu, Zn superoxide dismutase
[9]
  potency in reducing extracellular O2.− relative to oxyMb: 100-1000 fold
[10]
  effect on DCF fluorescence at highest SOD concentration: reduced DCF fluorescence below control levels
[4]; PMA-stimulated PMNs, in the presence of 30 μg/mL oxyMb
  SOD concentration producing peak levels of DCFH oxidation: 300 U/mL
